One test concerns the target T1, KRas^G12D (Homo sapiens, UniProt P01116, G12D).
T1 construct: […]; biotin (biotinylated); purchased Accelegan Inc
In words: KRas binding assay (TR-FRET displacement of Cy5 labelled tracer). In general terms: TR-FRET usually uses a lanthanide donor and a delayed reading to cut background.

Another test has as its target T2, KRas^G12A (Homo sapiens, UniProt P01116, G12A).
T2 construct: […]; biotin (biotinylated); purchased Accelegan Inc
The description is as above.

The target in another test is KRas^Q61H (Homo sapiens, UniProt P01116, Q61H). In words: biochemical.
Chain of KRas^Q61H (P01116 1-169 isoform P01116-2 Q61H): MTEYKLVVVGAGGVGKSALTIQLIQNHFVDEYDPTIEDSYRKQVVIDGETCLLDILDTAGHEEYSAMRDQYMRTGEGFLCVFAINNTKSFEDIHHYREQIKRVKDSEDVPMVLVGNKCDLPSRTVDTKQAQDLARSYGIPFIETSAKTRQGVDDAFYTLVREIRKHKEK
The target in the next test is T3, KRas^G12R (Homo sapiens, UniProt P01116, G12R).
T3 construct: […]; biotin (biotinylated); purchased Accelegan Inc
T3 sequence (P01116 1-169 isoform P01116-2 G12R): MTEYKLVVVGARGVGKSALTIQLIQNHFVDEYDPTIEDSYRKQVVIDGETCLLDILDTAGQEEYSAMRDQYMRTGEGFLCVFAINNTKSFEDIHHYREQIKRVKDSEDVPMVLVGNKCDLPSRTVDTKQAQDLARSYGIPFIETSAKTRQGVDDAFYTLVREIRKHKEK
Description: KRas binding assay (TR-FRET displacement of Cy5 labelled tracer).

Another test deals with KRas^G13D (Homo sapiens, UniProt P01116, G13D). Description: biochemical.
Chain of KRas^G13D (P01116 1-169 isoform P01116-2 G13D): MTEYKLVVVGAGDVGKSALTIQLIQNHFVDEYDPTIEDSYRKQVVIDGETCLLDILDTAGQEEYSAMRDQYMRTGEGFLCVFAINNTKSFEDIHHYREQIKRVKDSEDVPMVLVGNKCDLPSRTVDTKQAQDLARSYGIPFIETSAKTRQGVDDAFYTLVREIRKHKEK
The target in another test is T4, KRas^WT (Homo sapiens, UniProt P01116).
T4 construct: […]; biotin (biotinylated); purchased Accelegan Inc
T4 sequence (P01116 1-169 isoform P01116-2): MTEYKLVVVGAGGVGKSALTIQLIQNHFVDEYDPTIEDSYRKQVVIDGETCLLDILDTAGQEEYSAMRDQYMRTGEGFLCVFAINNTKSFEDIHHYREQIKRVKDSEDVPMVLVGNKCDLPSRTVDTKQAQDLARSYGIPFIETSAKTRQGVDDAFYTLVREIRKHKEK
Description: KRas binding assay (TR-FRET displacement of Cy5 labelled tracer).

The target of a further test is KRas^G12C (Homo sapiens, UniProt P01116, G12C). In words: biochemical.
Chain of KRas^G12C (P01116 1-169 isoform P01116-2 G12C): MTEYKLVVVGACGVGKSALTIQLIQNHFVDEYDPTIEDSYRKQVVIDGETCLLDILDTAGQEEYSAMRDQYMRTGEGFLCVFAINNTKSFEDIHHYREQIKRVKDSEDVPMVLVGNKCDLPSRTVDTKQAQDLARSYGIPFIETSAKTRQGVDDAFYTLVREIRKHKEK
The target of another test is T5, KRas^G12S (Homo sapiens, UniProt P01116, G12S).
T5 construct: […]; biotin (biotinylated); purchased Accelegan Inc
T5 sequence (P01116 1-169 isoform P01116-2 G12S): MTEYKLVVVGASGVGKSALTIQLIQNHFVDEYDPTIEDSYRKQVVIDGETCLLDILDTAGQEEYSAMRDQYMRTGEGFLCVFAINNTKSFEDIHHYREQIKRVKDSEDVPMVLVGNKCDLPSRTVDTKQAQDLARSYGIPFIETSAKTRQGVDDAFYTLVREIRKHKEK
Description: KRas binding assay (TR-FRET displacement of Cy5 labelled tracer).

The next test deals with T6, KRas^G12V (Homo sapiens, UniProt P01116, G12V).
T6 construct: […]; biotin (biotinylated); purchased Accelegan Inc
T6 sequence (P01116 1-169 isoform P01116-2 G12V): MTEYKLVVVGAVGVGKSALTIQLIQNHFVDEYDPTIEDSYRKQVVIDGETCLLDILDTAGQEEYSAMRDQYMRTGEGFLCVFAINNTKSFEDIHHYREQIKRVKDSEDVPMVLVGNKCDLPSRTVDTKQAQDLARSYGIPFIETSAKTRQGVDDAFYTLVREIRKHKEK
The description is as above.

T2 sequence (P01116 1-169 isoform P01116-2 G12A): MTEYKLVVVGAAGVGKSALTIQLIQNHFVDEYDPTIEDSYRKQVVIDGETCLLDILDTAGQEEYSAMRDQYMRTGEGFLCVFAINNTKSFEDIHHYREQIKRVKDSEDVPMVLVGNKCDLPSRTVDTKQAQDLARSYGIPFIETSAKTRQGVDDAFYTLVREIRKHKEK
T1 sequence (P01116 1-169 isoform P01116-2 G12D): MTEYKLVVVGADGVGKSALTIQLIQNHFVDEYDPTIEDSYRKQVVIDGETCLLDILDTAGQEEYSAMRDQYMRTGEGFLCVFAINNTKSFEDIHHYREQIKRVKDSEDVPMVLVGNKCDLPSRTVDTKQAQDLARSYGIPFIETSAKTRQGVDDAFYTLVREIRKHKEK
Description for KRas^G12A: (§1) The ability of a compound to bind to KRas was measured using a TR-FRET displacement assay. […] After a 60-minute incubation at room temperature, the reaction was measured using a BMG LABTECH CLARIO star Plus via TR-FRET. […] The POC values were fit to a 4-parameter IC50 equation and the IC50 value reported.
Description for KRas^G12C: as §1
Description for KRas^G12D: as §1
Description for KRas^G12R: as §1
Description for KRas^G12S: as §1
Description for KRas^G12V: as §1
Description for KRas^G13D: as §1
Description for KRas^Q61H: as §1
Description for KRas^WT: as §1

Turning to `CCc1cccc2cccc(N3CCc4c(nc(OCC56CCCN5CCC6)nc4N4CCCN(C(=O)c5ccco5)CC4)C3)c12` [Example 102, (4-(7-(8-ethylnaphthalen-1-yl)-2-((tetrahydro-1H-pyrrolizin-7a(5H)-yl)methoxy)-5,6,7,8-tetrahydropyrido[3,4-d]pyrimidin-4-yl)-1,4-diazepan-1-yl)(furan-2-yl)methanone], the IC50 – broadly, the concentration needed to halve the response being measured – at KRas^G12D amounted to 15000 nM; at KRas^G12A it was 805 nM; on KRas^Q61H it was 424 nM; on KRas^G12R it was 3080 nM; on KRas^G13D it was 363 nM; on KRas^WT, 357 nM. In addition, the IC50 against KRas^G12C was found to be 2990 nM; on KRas^G12S, 3090 nM; on KRas^G12V, 6450 nM.
On to `CCc1cccc2cccc(N3CCc4c(nc(OCC56CCCN5CCC6)nc4N4CCCCCC4)C3)c12` [Example 49, 4-(azepan-1-yl)-7-(8-ethylnaphthalen-1-yl)-2-((hexahydro-1H-pyrrolizin-7a-yl)methoxy)-5,6,7,8-tetrahydropyrido[3,4-d]pyrimidine], for which the IC50 at KRas^G12D was found to be 465 nM; at KRas^G12A it was 317 nM; against KRas^Q61H, 703 nM; on KRas^G12R, 167 nM; against KRas^G13D, 662 nM; on KRas^WT it was 579 nM. Also, the IC50 on KRas^G12C worked out at 273 nM; at KRas^G12S it was 364 nM; on KRas^G12V it was 184 nM.
Turning to `CCc1cccc2cccc(N3CCc4c(nc(OCC56CCCN5CCC6)nc4N4CCCC5(C4)NC(=O)NC5=O)C3)c12` (stereo not drawn) [Example 12, 7-(7-(8-ethylnaphthalen-1-yl)-2-((tetrahydro-1H-pyrrolizin-7a(5H)-yl)methoxy)-5,6,7,8-tetrahydropyrido[3,4-d]pyrimidin-4-yl)-1,3,7-triazaspiro[4.5]decane-2,4-dione], the IC50 is 3 nM on KRas^G12D; at most 2 nM on KRas^G12A; at most 2 nM against KRas^Q61H; at most 2 nM at KRas^G12R; at most 2 nM against KRas^G13D; at most 2 nM at KRas^WT. For the same molecule, the IC50 at KRas^G12C, at KRas^G12S and at KRas^G12V was at most 2 nM throughout.
As for `CCc1cccc2cccc(N3CCc4c(nc(OCC56CCCN5CCC6)nc4N4CCOC5(CCSC5)C4)C3)c12` (stereo not drawn) [Example 130, 9-(7-(8-ethylnaphthalen-1-yl)-2-((tetrahydro-1H-pyrrolizin-7a(5H)-yl)methoxy)-5,6,7,8-tetrahydropyrido[3,4-d]pyrimidin-4-yl)-6-oxa-2-thia-9-azaspiro[4.5]decane], the IC50 was 5070 nM on KRas^G12D; 1460 nM on KRas^G12A; 950 nM on KRas^Q61H; 1230 nM on KRas^G12R; 1160 nM against KRas^G13D; 772 nM on KRas^WT. The IC50 at KRas^G12C amounted to 1100 nM; at KRas^G12S, 1300 nM; at KRas^G12V it was 1260 nM.
Turning to `CCc1cccc2cccc(N3CCc4c(nc(OCC56CCCN5CCC6)nc4N4CCOC(CC(N)=O)C4)C3)c12` (stereo not drawn) [Example 103, 2-(4-(7-(8-ethylnaphthalen-1-yl)-2-((tetrahydro-1H-pyrrolizin-7a(5H)-yl)methoxy)-5,6,7,8-tetrahydropyrido[3,4-d]pyrimidin-4-yl)morpholin-2-yl)acetamide], the IC50 on KRas^G12D was 2580 nM; on KRas^G12A, 785 nM; against KRas^Q61H it was 690 nM; on KRas^G12R, 364 nM; at KRas^G13D, 691 nM; on KRas^WT, 718 nM. The IC50 against KRas^G12C is 427 nM; on KRas^G12S, 791 nM; on KRas^G12V, 1390 nM.
In the case of `CCc1cccc2cccc(N3CCc4c(nc(OCC56CCCN5CCC6)nc4N4CCCC(P(C)(C)=O)C4)C3)c12` (stereo not drawn) [Example 112, (1-(7-(8-ethylnaphthalen-1-yl)-2-((tetrahydro-1H-pyrrolizin-7a(5H)-yl)methoxy)-5,6,7,8-tetrahydropyrido[3,4-d]pyrimidin-4-yl)piperidin-3-yl)dimethylphosphine oxide], the IC50 on KRas^G12D is 7290 nM; at KRas^G12A it was 1340 nM; at KRas^Q61H it was 64 nM; on KRas^G12R, 2090 nM; against KRas^G13D it was 581 nM; at KRas^WT, 412 nM. The IC50 against KRas^G12C stood at 1570 nM; at KRas^G12S, 1330 nM; on KRas^G12V it was 1580 nM.
On to `CCc1cccc2cccc(N3CCc4c(nc(OCC56CCCN5CCC6)nc4N4CCCC(N5CCCC5=O)C4)C3)c12` (stereo not drawn) [Example 137, 1-(1-(7-(8-ethylnaphthalen-1-yl)-2-((tetrahydro-1H-pyrrolizin-7a(5H)-yl)methoxy)-5,6,7,8-tetrahydropyrido[3,4-d]pyrimidin-4-yl)piperidin-3-yl)pyrrolidin-2-one], for which the IC50 on KRas^G12D was 3240 nM; at KRas^G12A it was 948 nM; against KRas^Q61H it was 1470 nM; at KRas^G12R, 1140 nM; on KRas^G13D it was 1350 nM; at KRas^WT it was 1660 nM. Besides, the IC50 stood at 1030 nM against KRas^G12C, 1080 nM at KRas^G12S and 1470 nM on KRas^G12V.
For the molecule `O=C1NC(=O)C2CN(c3nc(OCC45CCCN4CCC5)nc4c3CCN(c3cccc5cccc(Cl)c35)C4)CC12` (stereo not drawn) [Example 79, 5-(7-(8-chloronaphthalen-1-yl)-2-((hexahydro-1H-pyrrolizin-7a-yl)methoxy)-5,6,7,8-tetrahydropyrido[3,4-d]pyrimidin-4-yl)tetrahydropyrrolo[3,4-c]pyrrole-1,3(2H,3aH)-dione], the IC50 on KRas^G12D was determined as 53 nM; at KRas^G12A, 128 nM; against KRas^Q61H, 151 nM; on KRas^G12R, 135 nM; on KRas^G13D, 111 nM; at KRas^WT, 109 nM. Further, the IC50 on KRas^G12C is 116 nM; on KRas^G12S it was 35 nM; on KRas^G12V, 67 nM.
As for `CCc1cccc2cccc(N3CCc4c(nc(OCC56CCCN5CCC6)nc4N4CCCC(C(C)O)C4)C3)c12` (stereo not drawn) [Example 131, 1-(1-(7-(8-ethylnaphthalen-1-yl)-2-((tetrahydro-1H-pyrrolizin-7a(5H)-yl)methoxy)-5,6,7,8-tetrahydropyrido[3,4-d]pyrimidin-4-yl)piperidin-3-yl)ethan-1-ol], the IC50 was found to be 2120 nM at KRas^G12D; 1200 nM on KRas^G12A; 1480 nM at KRas^Q61H; 774 nM on KRas^G12R; 1360 nM at KRas^G13D; 1410 nM on KRas^WT. In addition, the IC50 against KRas^G12C worked out at 1070 nM; at KRas^G12S, 1350 nM; on KRas^G12V, 1260 nM.
`CCc1cccc2cccc(N3CCc4c(nc(OCC56CCCN5CCC6)nc4N4CCCC(O)CC4)C3)c12` (stereo not drawn) [Example 7, 1-(7-(8-ethylnaphthalen-1-yl)-2-((tetrahydro-1H-pyrrolizin-7a(5H)-yl)methoxy)-5,6,7,8-tetrahydropyrido[3,4-d]pyrimidin-4-yl)azepan-4-ol]: the IC50 on KRas^G12D was determined as 121 nM; at KRas^G12A it was 92 nM; against KRas^Q61H, 173 nM; on KRas^G12R, 50 nM; against KRas^G13D, 143 nM; at KRas^WT it was 143 nM. For the same molecule, the results for the IC50 against KRas^G12C, on KRas^G12S and on KRas^G12V were 89 nM, 107 nM and 68 nM, respectively.
Consider `CCc1cccc2cccc(N3CCc4c(nc(OCC56CCCN5CCC6)nc4N(C)Cc4c[nH]nn4)C3)c12` [Example 127, N-((1H-1,2,3-triazol-4-yl)methyl)-7-(8-ethylnaphthalen-1-yl)-N-methyl-2-((tetrahydro-1H-pyrrolizin-7a(5H)-yl)methoxy)-5,6,7,8-tetrahydropyrido[3,4-d]pyrimidin-4-amine], for which the IC50 on KRas^G12D stood at 2040 nM; on KRas^G12A, 2070 nM; against KRas^Q61H it was 1750 nM; on KRas^G12R, 1360 nM; at KRas^G13D, 1830 nM; at KRas^WT it was 1540 nM. Further, the IC50 on KRas^G12C came out at 1150 nM; on KRas^G12S, 1400 nM; on KRas^G12V it was 739 nM.
Turning to `CCc1cccc2cccc(N3CCc4c(nc(OCC56CCCN5CCC6)nc4N4CCn5ncc(S(C)(=O)=O)c5C4)C3)c12` [Example 144, 7-(8-ethylnaphthalen-1-yl)-4-(3-(methylsulfonyl)-6,7-dihydropyrazolo[1,5-a]pyrazin-5(4H)-yl)-2-((tetrahydro-1H-pyrrolizin-7a(5H)-yl)methoxy)-5,6,7,8-tetrahydropyrido[3,4-d]pyrimidine], the IC50 at KRas^G12D was 1260 nM; on KRas^G12A, 8490 nM; against KRas^Q61H, 10600 nM; at KRas^G12R, 11100 nM; on KRas^G13D, 10100 nM; on KRas^WT it was 7510 nM. Besides, the results for the IC50 at KRas^G12C, at KRas^G12S and at KRas^G12V were 4980 nM, 5680 nM and 6280 nM, respectively.
In the case of `CCc1cccc2cccc(N3CCc4c(nc(OCC56CCCN5CCC6)nc4NCCNS(N)(=O)=O)C3)c12` [Example 160, N-(2-((7-(8-ethylnaphthalen-1-yl)-2-((tetrahydro-1H-pyrrolizin-7a(5H)-yl)methoxy)-5,6,7,8-tetrahydropyrido[3,4-d]pyrimidin-4-yl)amino)ethyl)sulfamide], the IC50 came to 4440 nM on KRas^G12D; 9260 nM at KRas^G12A; 11000 nM against KRas^Q61H; 7650 nM at KRas^G12R; 10000 nM against KRas^G13D; 8740 nM at KRas^WT. Besides, the IC50 on KRas^G12C came out at 4240 nM; on KRas^G12S, 6740 nM; at KRas^G12V it was 2560 nM.

The record behind these values is patent publication US12421253B2 (Mirati Therapeutics, Inc., priority 2020, dated 2025).
